For three molecules, IC50 results are on record in patent US20070259849A1, “Azine-Carboxamides as Anti-Cancer Agents” (ASTRAZENECA AB, priority 2004, published 2007).

In the assay the target is T1, human recombinant, purified wild type His-B-Raf protein kinase (Homo sapiens, UniProt P15056).
T1 construct: His
The assay can be described thus: B-Raf In Vitro ELISA Assay. Type of assay: biochemical. The note with it: phosphorylation of MEK1 (0.15 μM) by 2.5 nM B-Raf, 10 μM ATP, 1 hour preincubation at 25° C. The procedure: B-Raf In Vitro ELISA Assay
Activity of human recombinant, purified wild type His-B-Raf protein kinase was determined in vitro using an enzyme-linked immunosorbent assay (ELISA) assay format, which measures phosphorylation of the B-Raf substrate, human recombinant, purified His-derived (detagged) MEK1. The reaction utilized 2.5 nM B-Raf, 0.15 μM MEK1 and 10 μM adenosine triphosphate (ATP) in 40 mM N-(2-hydroxyethyl)piperazine-N′-(2-ethanesulfonic acid hemisodium salt (HEPES), 5 mM 1,4-dithio-DL-threitol (DTT), 10 mM MgCl2, 1 mM ethylenediaminetetraacetic acid (EDTA) and 0.2 M NaCl (1×HEPES buffer), with or without compound at various concentrations, in a total reaction volume of 25 μl in 384 well plates. B-Raf and compound were preincubated in 1×HEPES buffer for 1 hour at 25° C. Reactions were initiated with addition of MEK1 and ATP in 1×HEPES buffer and incubated at 25° C. for 50 minutes and reactions stopped by addition of 10 μl 175 mM EDTA (final concentration 50 mM) in 1× HEPES buffer. 5 μl of the assay mix was then diluted 1:20 into 50 mM EDTA in 1×HEPES buffer, transferred to 384 well black high protein binding plates and incubated overnight at 4° C. Plates were washed in tris buffered saline containing 0.1% Tween20 (TBST), blocked with 50 μl Superblock (Pierce) for 1 hour at 25° C., washed in TBST, incubated with 50 μl rabbit polyclonal anti-phospho-MEK antibody (Cell Signaling) diluted 1:1000 in TBS for 2 hours at 25° C., washed with TBST, incubated with 50 μl goat anti-rabbit horseradish peroxidase-linked antibody (Cell Signaling) diluted 1:2000 in TBS for 1 hour at 25° C. and washed with TBST. 50 μl of fluorogenic peroxidase substrate (Quantablu—Pierce) was added and following incubation for 45-60 minutes, 50 μl QuantabluSTOP (Pierce) was added. Blue fluorescent product was detected at excitation 325 and emission 420 using a TECAN Ultra plate reader. Data was graphed and IC50s calculated using Excel Fit (Microsoft).
In general terms: In an ELISA, binding on a coated surface is turned into a signal by an enzyme label.

T1 sequence (P15056 whole entry): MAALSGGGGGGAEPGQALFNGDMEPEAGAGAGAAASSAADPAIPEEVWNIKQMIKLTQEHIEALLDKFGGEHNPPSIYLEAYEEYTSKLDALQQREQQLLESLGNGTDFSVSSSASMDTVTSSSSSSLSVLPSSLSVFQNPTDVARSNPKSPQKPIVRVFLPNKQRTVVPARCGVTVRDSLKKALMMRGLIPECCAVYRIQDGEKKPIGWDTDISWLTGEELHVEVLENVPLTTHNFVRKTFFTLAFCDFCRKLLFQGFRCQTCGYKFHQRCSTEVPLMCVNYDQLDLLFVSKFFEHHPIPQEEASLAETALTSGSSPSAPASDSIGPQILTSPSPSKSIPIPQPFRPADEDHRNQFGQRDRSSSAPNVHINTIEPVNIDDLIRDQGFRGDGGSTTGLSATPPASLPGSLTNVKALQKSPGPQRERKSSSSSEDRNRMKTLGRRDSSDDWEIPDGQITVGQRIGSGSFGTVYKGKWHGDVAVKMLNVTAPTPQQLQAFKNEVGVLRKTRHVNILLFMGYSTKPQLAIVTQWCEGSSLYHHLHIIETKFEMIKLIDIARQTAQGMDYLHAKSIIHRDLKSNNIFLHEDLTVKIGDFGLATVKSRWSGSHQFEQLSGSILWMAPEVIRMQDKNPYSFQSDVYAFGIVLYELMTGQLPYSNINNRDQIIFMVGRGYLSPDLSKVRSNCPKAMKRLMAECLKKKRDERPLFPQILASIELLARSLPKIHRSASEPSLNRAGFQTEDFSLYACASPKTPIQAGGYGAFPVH

As usually defined, the IC50 is the concentration that gives 50% inhibition. Turning to `Cc1cc(C(=O)Nc2cc(NC(=O)c3cccc(C(C)(C)C#N)c3)ccc2C)nc(N2CCCCC2)n1` [Example 1, N^1-[3-(1-Cyano-1-methylethyl)benzoyl]-N^3-[2-(piperidin-1-yl)-4-methylpyrimidin-6-ylcarbonyl]-4-methylbenzene-1,3-diamine], the IC50 worked out at 5700 nM.
Under `Cc1cc(C(=O)Nc2cc(NC(=O)c3cccc(C(C)(C)C#N)c3)ccc2C)nc(N2CCOCC2)n1` [Example 7, N^1-[3-(1-Cyano-1-methylethyl)benzoyl]-N^3-[2-(morpholino)-4-methylpyrimidin-6-ylcarbonyl]-4-methylbenzene-1,3-diamine] stands 600 nM; under `Cc1cc(C(=O)Nc2cc(NC(=O)c3cccc(C(F)(F)F)c3)ccc2C)nc(N2CCN(C)CC2)n1` [Example 49, N^1-(3-Trifluoromethylbenzoyl)-N^3-[2-(4-methylpiperazin-1-yl)-4-methylpyrimidin-6-ylcarbonyl]-4-methylbenzene-1,3-diamine], 800 nM.
